The values below come from paper PMC7156458, “Synthetic biology based construction of biological activity-related library of fungal decalin-containing diterpenoid pyrones” (Nature Communications, 2020).

Where “and” joins values, the source holds several entries; their conditions need not be identical. Identical values can stand only once. Like-named read-outs stand apart in the source and are kept apart here.

One test concerns MKN-B. The test is described as follows: cells. Set-up: JFCR39 human cancer cell line panel, antiproliferative dose response (optical density), GI50. On the procedure: (§1) Initially, we evaluated new DDP analogues for their antiproliferative activities across the panel of 39 human cancer cell lines, JFCR39[50],[51]. […] Purified DDPs was dissolved in DMSO (Specially Prepared Reagent, Nuclease and Protease tested, NACALAI, 09659-14) to prepare 5 mM solutions. The Each DDP solution (5 mM) was used for antiproliferative effects on cancer cell lines (Supplementary Notes 23, 24, 25, 26), biological activity against Drosophila (Supplementary Note 27), anti-HIV assay (Supplementary Note 28) and screening of amyloid Ab42 aggregation inhibitors (Supplementary Notes 29).

The test system of a further test is NCI-H460. Description: cells. The conditions noted are these: Homo sapiens, NCI-H460. On the set-up: JFCR39 human cancer cell line panel, antiproliferative dose response (optical density), GI50. On the procedure: as §1
For another test, the target named is Aβ42 (Homo sapiens, UniProt P05067). The test is described as follows: LC/Q Tof-MS detection of Aβ42 adducts. Format: binding. The conditions noted are these: 1 h incubation at room temperature. On the procedure:
To further analyse the inhibitory mechanism, we subjected a mixture of Aβ42 and 21 after 1 h of incubation at room temperature to liquid chromatography/quadrupole time-of-flight mass spectrometry (LC/Q Tof-MS). […] To identify the specific amino acids involved in the interaction of 21 with the Aβ monomer, we performed LC–MS/MS analysis with collision-induced dissociation (CID) using E22P, M35ox-Aβ9-35 as a toxic conformer surrogate[66],[67]. Based on a large number of fragmented b ions and y ions, Lys16 in Aβ42 ([…]) seemed to be one of the target amino acid residues of 21 (Supplementary Fig. 50).
Device; UPLC H-class with Xevo G2-S Qtof (Waters) 3.44e7 […]
in 50% CH3CN containing 0.01%NH4OH, incubated for 1 h at 23 °C […]
Capillary voltage; 3.0 kv 16.07
WT-A!42+ compound 21 1: TOF MS ES+
ْMeasurement conditionٓ 2.25e7
Device; UPLC H-class with Xevo G2-S Qtof (Waters)
Capillary voltage; 3.0 kv
WT-A!42 + compound 21 Mass spectrum […]
Supplementary Fig. 48. Comparison of LC-MS data, a, compound 20 was incubated with wt-Aβ42 and analyzed by LC-MS, whereas no peak originated from their adducts was observed. b, compound 21 was incubated with Aβ42 and analyzed by LC-MS, and their Michael adducts were observed around 9 min. c, ESI mass spectra of the Michael adducts between Aβ42 and compound 21. d, Deconvolution Mass spectrum of a Michael adduct observed at 8.944 min. […]

The test system of another test is adult Drosophila. The test is described as follows: toxic effect on Drosophila adult (injection, unmoving flies). The conditions noted are these: for Number of Unmoving flies (%) Mean: 1 mM, 1h, adult flies injected (3.5 ng each), solvent 5. Format: in vivo, Drosophila melanogaster. The source says:
We next tested the ability of the DDPs to affect the innate immune pathways, namely, the Toll and immune deficiency (IMD) pathways, which are the front line of defence against infection by microorganisms. […] Thus, we successfully found unique biological activity against Drosophila in 5 and 21, which may potentially be developed as insecticides.
Fig. 6 Biological activity against Drosophila. a Inhibitory effect of compound 21 on the IMD pathway Drosophila l(2)mbn cells were stimulated with heat-killed E. coli and the activity of the Attacin promoter, a read-out of the activation of the IMD pathway, was monitored by a luciferase assay. Data are means ± SEM of triplicate wells from a single experiment and are representative of two independent experiments. b Toxic effect of compound 5 on Drosophila adult. […] Data are the means ± SEM of triplicate samples from a single experiment and are representative of two independent experiments. Source data underlying Fig. 6a, b are provided in a Source Data file.
Policy information about cell lines […]
were distributed from National Cancer Institute (Frederick, MD). HT-29, MCF-7, DU-145 and PC-3 were purchased from American Type Culture Collection (Baltimore, MD). MKN-1, MKN-74, MKN-45, MKN-A and MKN-B were purchased from Immuno-Biological Laboratories, Co., Ltd., Gumma, Japan). St-4, HBC-4, HBC-5 and BSY-1 were established in Japanese Foundation for Cancer Research (Tokyo, Japan).
DL-1 and l(2)mbn were gifted from Dr. Kurata in Tohoku University.
MCF-7 (Fig.5 and Supplementary Fig. 46) were obtained from American Type Culture Collection.
HeLa-CD4-LTR/ !-galactosidase (MAGI) cells provided by Dr. J. Overbaugh through the NIH AIDS Research and Reference […]
PC-3) were authenticated by STR analysis.
DL-1 and l(2)mbn are Drosophila cell lines, and were not authenticated.
MCF-7 cells (for Fig. 5 and Supplementary Fig. 46) were authenticated by STR analysis to evaluate antiproliferative activity […]
MAGI cells were authenticated by the NIH.
Mycoplasma contamination All the cell lines tested negative for mycoplasma contamination. […]

In a further test the test system is IMD pathway. Description: IMD pathway inhibition, Attacin promoter luciferase assay in l(2)mbn cells. Format: cell-based, Drosophila. Conditions: for IC50: IMD pathway; for activity at 0.2 µM / activity at 0.4 µM / activity at 0.8 µM / activity at 1 µM / Promoter Activity (%): heat-killed E. coli.
The next test has as its system HCT-15. The test is described as follows: cells. Set-up: JFCR39 human cancer cell line panel, antiproliferative dose response (optical density), GI50. Conditions: Homo sapiens, HCT-15. On the procedure: as §1

Chain of Aβ42 (P05067 672-713): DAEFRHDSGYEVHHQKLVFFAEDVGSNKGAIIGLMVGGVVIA

Broadly, the GI50 is the concentration giving 50% growth inhibition. A lower GI50 goes with more potent growth inhibition. `C=C1CC[C@H]2[C@]3(C)C[C@H](C=C(C)C)O[C@H]3CC[C@]2(C)[C@@H]1Cc1c(OC)oc(C)c(C)c1=O` [Compound 24]: the GI50 in the test with MKN-B was determined as 1280 nM; in the test with NCI-H460 it was 90.1 nM.

With `C=C1CC[C@@H]2[C@](C)(CC[C@H]3O[C@H](C=C(C)C)C[C@@]23C)[C@@H]1Cc1c(OC)oc(CO)c(C)c1=O` [Compound 20], on Aβ42, the “Aβ42 adduct formation” value is on record as “no such adduct was found”.

As to `C=C1CC[C@H]2[C@]3(C)C[C@@H](C=C(C)C)O[C@H]3CC[C@]2(C)[C@@H]1Cc1c(O)c(C)c(C)oc1=O` [Compound 5, subglutinol A], the “Number of Unmoving flies (%) Mean” value with adult Drosophila is 58.3333%. Also, the “paralysing activity against adult Drosophila” value with adult Drosophila (1 h after injection) is “efficiently paralysed adult Drosophila”.

As usually defined, the IC50 is the point on the concentration scale where inhibition reaches its midpoint. In the case of `C=C1CC[C@@H]2[C@](C)(CC[C@H]3O[C@H](C=C(C)C)C[C@@]23C)[C@@H]1Cc1c(OC)oc(CO)c(C(=O)OC)c1=O` [Compound 21], in the test with adult Drosophila, the “Number of Unmoving flies (%) Mean” value is recorded as 11.6667%. For the same compound, the “Inhibitory effect (%)” value is 89.37% and 87.09% with IMD pathway (0.4 µM, single wells); 98.99% and 96.72% in the test with IMD pathway (0.8 µM, single wells); 98.29% and 97.94% in the test on IMD pathway (1 µM, single wells). In addition, the inhibition at 0.4 µM in the test with IMD pathway (Drosophila melanogaster, 0.4 µM, single wells, read-out: Inhibitory effect (%)) is 85.2%. The inhibition at 0.8 µM with IMD pathway (Drosophila melanogaster, 0.8 µM, single wells, read-out: Inhibitory effect (%)) amounted to 96.5%. Also, the inhibition at 1 µM in the test with IMD pathway (Drosophila melanogaster, 1 µM, single wells, read-out: Inhibitory effect (%)) was 100%. Further, the IC50 in the test on IMD pathway (Drosophila melanogaster, read-out: IC50) was determined as 270 ± 10 nM; in the test on IMD pathway (Drosophila melanogaster, read-out: IC50 Average), 273 nM; in the test with IMD pathway (Drosophila melanogaster, single determinations, read-out: IC50 (IC50 1, 2, 3)), 260 nM; with IMD pathway (single determinations, read-out: IC50 (IC50 1, 2, 3)) it was 290 nM. In addition, the activity at 0.2 µM in the test on IMD pathway (Drosophila melanogaster, 0.2 µM, read-out: Promoter Activity (%) Average) came to 81.5%; in the test on IMD pathway (Drosophila melanogaster, 0.2 µM, read-out: Promoter Activity (%) Final), 81.5%; in the test with IMD pathway (Drosophila melanogaster, 0.2 µM, single wells, read-out: Promoter Activity (%)) it was 73.6%. Further, the activity at 0.4 µM with IMD pathway (Drosophila melanogaster, 0.4 µM, read-out: Promoter Activity (%) Average) was 12.8%; in the test with IMD pathway (Drosophila melanogaster, 0.4 µM, read-out: Promoter Activity (%) Final), 12.8%; in the test on IMD pathway (Drosophila melanogaster, 0.4 µM, single wells, read-out: Promoter Activity (%)) it was 14.8%. For the same compound, the activity at 0.8 µM was determined as 2.58% with IMD pathway (Drosophila melanogaster, 0.8 µM, read-out: Promoter Activity (%) Average) and 2.58% in the test on IMD pathway (Drosophila melanogaster, 0.8 µM, read-out: Promoter Activity (%) Final). In addition, the activity at 1 µM with IMD pathway (Drosophila melanogaster, 1 µM, read-out: Promoter Activity (%) Average) came to 1.26%; in the test on IMD pathway (Drosophila melanogaster, 1 µM, read-out: Promoter Activity (%) Final) it was 1.26%. In addition, the “Promoter Activity (%)” value is 82.38% and 88.33% in the test on IMD pathway (0.2 µM, single wells); 10.63% and 12.91% with IMD pathway (0.4 µM, single wells); 3.46% and 1.01% and 3.28% with IMD pathway (0.8 µM, single wells); 0.00% and 1.71% and 2.06% in the test on IMD pathway (1 µM, single wells). Moreover, the “Aβ42 adduct formation” value on Aβ42 is listed as “adducts were detected”.

`C=C1CCC2C(C)(CCC=C(C)C)C(O)CCC2(C)C1Cc1c(OC)oc(CO)c(C(=O)OC)c1=O` (stereo not drawn) [Compound 13]: the “inhibitory effect on the IMD pathway” value in the test on IMD pathway was “moderate inhibitory effect”.

`C=C1CCC2C3(C)CC(C=C(C)C)OC3CCC2(C)C1Cc1c(OC)oc(C)c(C)c1=O` (stereo not drawn) [Compound 23] returned a GI50 in the test on HCT-15 of 983 nM.
